Measurements from patent EP0308983A2, “NMR imaging with Mn(II) coordination compositions” (priority 1987, dated 1989).

Assays:
[1] = Paramagnetic relaxation properties in human plasma at 37°C; format: physicochemical; conditions: for T₂ value / T₁ value / R₁ / R₂ / T₁ changed by (repeat measurement) / T₂ changed by (repeat measurement): 37°C; for T₁ value: triplicate; for T₁ changed by (repeat measurement) / T₂ changed by (repeat measurement): repeat measurement 80 minutes later; for T₂ relaxivity in plasma, fold greater than GdDTPA: versus GdDTPA; for T₁ relaxivity in plasma, fold greater than GdDTPA: versus gadolinium diethylenetriaminepentaacetic acid chelate (GdDTPA)
[2] = Paramagnetic relaxation properties in water at 10 MHz (0.15T), RADX spin analyzer; format: physicochemical; conditions: 10 MHz (0.15T); for spin-lattice (T₁) relaxation value / spin-spin (T₂) relaxation value: 37°C, triplicate, mean +/- SD; for millimolar relaxivity for T₁ / millimolar relaxivity for T₂: in water; for millimolar relaxivity for T₁: calculated from T₁ and concentration; for millimolar relaxivity for T₂: calculated from T₂ and concentration
Experimental: The paramagnetic relaxation properties of [manganese(II)·(H₂O)₂·(L-alanine)₂]⁺²(Cl₂)⁻² in water were measured at 10 MHz (0.15T) with a spin analyzer (RADX; Houston, TX) at 37°C. After thermal equilibrium, the spin-lattice (T₁) and spin-spin (T₂) relaxation values were measured in triplicate.
The paramagnetic relaxation of the title compound in water was measured at 10 MHz (0.15T) with a spin analyzer (RADX; Houston, TX). After thermal equilibrium, the spin-lattice (T₁) and spin-spin (T₂) relaxation values were measured.
Relaxivity was measured at 10 MHz (0.15T) as described in Example 10.
The relaxivity of the title compound was performed at 0.15 T (10 MHz) with a RADX Spin Analyzer (Houston, TX) at 37°C.

Row | Compound | T₂ value ([1]; 90 µM final concentration) | T₁ value ([1]; 90 µM final concentration) | R₁ [1] | R₂ [1] | T₁ changed by (repeat measurement) [1] | T₂ changed by (repeat measurement) [1] | T₂ relaxivity in plasma, fold greater than GdDTPA [1] | T₁ relaxivity in plasma, fold greater than GdDTPA [1] | millimolar relaxivity for T₁ [2] | millimolar relaxivity for T₂ [2] | further results
1 | N[C@@H](Cc1ccccc1)C(=O)O.N[C@@H](Cc1ccccc1)C(=O)O.O.O.[Cl-].[Cl-].[Mn+2] [[Manganese(II)·(H₂O)₂·(L-phenylalanine)₂]⁺²(Cl₂)⁻²] | 186 ± 7 ms | 240 ± 10 ms | 46.3 mM⁻¹ s⁻¹ | 59.7 mM⁻¹ s⁻¹ | 2% | 2% | 12.4 fold | 9.65 fold | 9.84 mM⁻¹ s⁻¹ | 39.0 mM⁻¹ s⁻¹ | spin-lattice (T₁) relaxation value ([2]; 0.95 mM solution in water): 107 ± 5 ms; spin-spin (T₂) relaxation value ([2]; 0.95 mM solution in water): 27 ± 1 ms
2 | NCCCC[C@H](N)C(=O)O.NCCCC[C@H](N)C(=O)O.O.O.[Cl-].[Cl-].[Mn+2] [Manganese(II)·(H₂O)₂·(L-lysine)₂]⁺²(Cl₂)⁻²] | – | – | 47.3 mM⁻¹ s⁻¹ | 56.6 mM⁻¹ s⁻¹ | 3% | 3% | 11.8 fold | 9.9 fold | 9.55 mM⁻¹ s⁻¹ | 39.7 mM⁻¹ s⁻¹ | T₂ value ([1]; 92 µM final concentration): 192 ± 8 ms; T₁ value ([1]; 92 µM final concentration): 230 ± 9 ms; spin-lattice (T₁) relaxation value ([2]; 0.97 mM solution in water): 108 ± 9 ms; spin-spin (T₂) relaxation value ([2]; 0.97 mM solution in water): 26 ± 1 ms
3 | N[C@@H](CO)C(=O)O.N[C@@H](CO)C(=O)O.O.O.[Cl-].[Cl-].[Mn+2] [Manganese(II)·(H₂O)₂·(L-serine)₂]⁺²(Cl₂)⁻²] | – | – | 45.2 mM⁻¹ s⁻¹ | 56.9 mM⁻¹ s⁻¹ | 3% | 2% | 11.9 fold | 9.4 fold | 9.19 mM⁻¹ s⁻¹ | 37.8 mM⁻¹ s⁻¹ | T₂ value ([1]; 93 µM final concentration): 189 ± 6 ms; T₁ value ([1]; 93 µM final concentration): 238 ± 9 ms; spin-lattice (T₁) relaxation value ([2]; 0.989 mM solution in water): 111 ± 2 ms; spin-spin (T₂) relaxation value ([2]; 0.989 mM solution in water): 27 ± 1 ms
4 | N[C@@H](CS)C(=O)O.N[C@@H](CS)C(=O)O.O.O.[Cl-].[Cl-].[Mn+2] [Manganese(II)·(H₂O)₂·(L-cysteine)₂]⁺²(Cl₂)⁻²] | – | – | 44.0 mM⁻¹ s⁻¹ | 57.2 mM⁻¹ s⁻¹ | 4% | 1% | 11.9 fold | 9.2 fold | 9.82 mM⁻¹ s⁻¹ | 41.2 mM⁻¹ s⁻¹ | T₂ value ([1]; 92 µM final concentration): 190 ± 17 ms; T₁ value ([1]; 92 µM final concentration): 247 ± 14 ms; spin-lattice (T₁) relaxation value ([2]; 0.97 mM solution in water): 105 ± 4 ms; spin-spin (T₂) relaxation value ([2]; 0.97 mM solution in water): 25 ± 1 ms
5 | O.O.O=C(O)[C@@H]1C[C@@H](O)CN1.O=C(O)[C@@H]1C[C@@H](O)CN1.[Cl-].[Cl-].[Mn+2] [[Manganese(II)·(H₂O)₂·(L-hydroxyproline)₂]⁺²(Cl₂)⁻²] | – | – | 43.7 mM⁻¹ s⁻¹ | 56.9 mM⁻¹ s⁻¹ | did not change | 1% | 11.9 fold | 9.1 fold | 9.19 mM⁻¹ s⁻¹ | 39.3 mM⁻¹ s⁻¹ | T₂ value ([1]; 93 µM final concentration): 189 ± 9 ms; T₁ value ([1]; 93 µM final concentration): 246 ± 13 ms; spin-lattice (T₁) relaxation value ([2]; 0.98 mM solution in water): 111 ± 3 ms; spin-spin (T₂) relaxation value ([2]; 0.98 mM solution in water): 26 ± 1 ms
6 | CC(C)C[C@H](N)C(=O)O.CC(C)C[C@H](N)C(=O)O.O.O.[Cl-].[Cl-].[Mn+2] [[Manganese(II)·(H₂O)₂·(L-leucine)₂]⁺²(Cl₂)⁻²] | 192 ± 0 ms | 243 ± 13 ms | 45.7 mM⁻¹ s⁻¹ | 57.9 mM⁻¹ s⁻¹ | 5% | 4% | 12.1 fold | 9.5 fold | 9.33 mM⁻¹ s⁻¹ | 39.4 mM⁻¹ s⁻¹ | spin-lattice (T₁) relaxation value ([2]; 0.94 mM solution in water): 114 ± 9 ms; spin-spin (T₂) relaxation value ([2]; 0.94 mM solution in water): 27 ± 1 ms
7 | N[C@@H](Cc1ccc(O)cc1)C(=O)O.N[C@@H](Cc1ccc(O)cc1)C(=O)O.O.O.[Cl-].[Cl-].[Mn+2] [[Manganese(II)·(H₂O)₂·(L-tyrosine)₂]⁺²(Cl₂)⁻²] | – | – | 49.3 mM⁻¹ s⁻¹ | 71.6 mM⁻¹ s⁻¹ | 5% | 9% | 14.8 fold | 10.3 fold | 9.94 mM⁻¹ s⁻¹ | 38.7 mM⁻¹ s⁻¹ | T₂ value ([1]; 65 µM final concentration): 216 ± 2 ms; T₁ value ([1]; 65 µM final concentration): 312 ± 20 ms; spin-lattice (T₁) relaxation value ([2]; 0.68 mM solution in water): 148 ± 1 ms; spin-spin (T₂) relaxation value ([2]; 0.68 mM solution in water): 38 ± 1 ms
8 | NC(=O)CC[C@H](N)C(=O)O.NC(=O)CC[C@H](N)C(=O)O.O.O.[Cl-].[Cl-].[Mn+2] [[Manganese(II)·(H₂O)₂·(L-glutamine)₂]⁺²(Cl₂)⁻²] | 188 ± 8 ms | 251 ± 18 ms | 44.3 mM⁻¹ s⁻¹ | 59.1 mM⁻¹ s⁻¹ | 5% | did not change | 12.3 fold | 9.2 fold | 9.75 mM⁻¹ s⁻¹ | 39.0 mM⁻¹ s⁻¹ | spin-lattice (T₁) relaxation value ([2]; 0.95 mM solution in water): 108 ± 3 ms; spin-spin (T₂) relaxation value ([2]; 0.95 mM solution in water): 27 ± 0 ms
9 | C[C@@H](O)[C@H](N)C(=O)O.C[C@@H](O)[C@H](N)C(=O)O.O.O.[Cl-].[Cl-].[Mn+2] [Manganese(II)·(H₂O)₂·(L-threonine)₂]⁺²(Cl₂)⁻²] | – | – | 45.1 mM⁻¹ s⁻¹ | 55.5 mM⁻¹ s⁻¹ | 1% | 11% | 11.6 fold | 9.4 fold | 9.82 mM⁻¹ s⁻¹ | 36.8 mM⁻¹ s⁻¹ | T₂ value ([1]; 92 µM final concentration): 196 ± 17 ms; T₁ value ([1]; 92 µM final concentration): 241 ± 7 ms; spin-lattice (T₁) relaxation value ([2]; 0.97 mM solution in water): 105 ± 1 ms; spin-spin (T₂) relaxation value ([2]; 0.97 mM solution in water): 28 ± 1 ms
10 | N[C@@H](CC(=O)O)C(=O)O.N[C@@H](CC(=O)O)C(=O)O.O.O.[Cl-].[Cl-].[Mn+2] [Manganese(II)·(H₂O)₂·(L-aspartic acid)₂]⁺²(Cl₂)⁻²] | – | – | 46.3 mM⁻¹ s⁻¹ | 61.2 mM⁻¹ s⁻¹ | did not change | 3% | 12.8 fold | 9.7 fold | 9.58 mM⁻¹ s⁻¹ | 39.7 mM⁻¹ s⁻¹ | T₂ value ([1]; 86 µM final concentration): 190 ± 12 ms; T₁ value ([1]; 86 µM final concentration): 251 ± 12 ms; spin-lattice (T₁) relaxation value ([2]; 0.90 mM solution in water): 116 ± 3 ms; spin-spin (T₂) relaxation value ([2]; 0.90 mM solution in water): 28 ± 1 ms
11 | CC[C@H](C)[C@H](N)C(=O)O.CC[C@H](C)[C@H](N)C(=O)O.O.O.[Cl-].[Cl-].[Mn+2] [[Manganese(II)·(H₂O)₂·(L-isoleucine)₂]⁺²(Cl₂)⁻²] | 182 ± 5 ms | 235 ± 7 ms | 47.3 mM⁻¹ s⁻¹ | 61.1 mM⁻¹ s⁻¹ | 2% | 8% | 12.7 fold | 9.9 fold | 9.66 mM⁻¹ s⁻¹ | 37.6 mM⁻¹ s⁻¹ | spin-lattice (T₁) relaxation value ([2]; 0.99 mM solution in water): 109 ± 7 ms; spin-spin (T₂) relaxation value ([2]; 0.99 mM solution in water): 28 ± 1 ms
12 | O.O.O=C(O)[C@@H]1CCCN1.O=C(O)[C@@H]1CCCN1.[Cl-].[Cl-].[Mn+2] [Manganese(II)·(H₂O)₂·(L-proline)₂]⁺²(Cl₂)⁻²] | – | – | 46.5 mM⁻¹ s⁻¹ | 53.2 mM⁻¹ s⁻¹ | 5% | 12% | 11.1 fold | 9.7 fold | 9.63 mM⁻¹ s⁻¹ | 39.3 mM⁻¹ s⁻¹ | T₂ value ([1]; 93 µM final concentration): 202 ± 12 ms; T₁ value ([1]; 93 µM final concentration): 234 ± 12 ms; spin-lattice (T₁) relaxation value ([2]; 0.98 mM solution in water): 106 ± 4 ms; spin-spin (T₂) relaxation value ([2]; 0.98 mM solution in water): 26 ± 2 ms
